Test results: publication PMC7182988 (Saudi Journal of Biological Sciences, 2020)
Entries after “also recorded” stand apart in the source; their conditions may differ. Like-named read-outs stand apart in the source and are kept apart here.

Key:
human recombinant COX-1 = human recombinant COX-1 (Homo sapiens, UniProt P23219); assay: COX-1; type: biochemical; settings: for COX-1% (percentage of inhibition of COX-1): at 40 μg/mL; for Selectivity IC50 COX-1/IC50 COX-2: defined as IC50 COX-1/IC50 COX-2; for inhibition at 40 µg/mL: read-out: COX-1% (percentage of inhibition of COX-1)
human recombinant COX-2 = molecular target: T1, human recombinant COX-2 (Homo sapiens, UniProt P35354); assay: COX-2; type: biochemical; settings: for COX-2% (percentage of inhibition of COX-2): at 40 μg/mL; for inhibition at 40 µg/mL: read-out: COX-2% (percentage of inhibition of COX-2)
T1 sequence (P35354 18-604): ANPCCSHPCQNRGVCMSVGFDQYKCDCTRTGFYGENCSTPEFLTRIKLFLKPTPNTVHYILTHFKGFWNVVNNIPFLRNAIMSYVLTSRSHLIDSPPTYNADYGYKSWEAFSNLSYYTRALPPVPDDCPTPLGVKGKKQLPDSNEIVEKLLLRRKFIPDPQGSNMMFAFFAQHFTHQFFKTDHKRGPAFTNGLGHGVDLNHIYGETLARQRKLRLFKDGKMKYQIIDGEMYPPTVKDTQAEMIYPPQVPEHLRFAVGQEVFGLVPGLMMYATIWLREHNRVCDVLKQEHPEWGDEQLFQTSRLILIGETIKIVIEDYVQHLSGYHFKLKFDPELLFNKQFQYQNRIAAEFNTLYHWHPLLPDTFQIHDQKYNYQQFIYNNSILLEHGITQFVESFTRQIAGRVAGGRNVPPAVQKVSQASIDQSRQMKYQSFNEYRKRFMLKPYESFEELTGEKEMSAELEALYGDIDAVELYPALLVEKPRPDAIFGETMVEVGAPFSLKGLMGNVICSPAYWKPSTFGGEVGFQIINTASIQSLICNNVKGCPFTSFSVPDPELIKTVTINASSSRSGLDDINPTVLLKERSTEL

[1] = system: LPS-induced IL-6 in WI-38 fibroblast cells; assay: ELISA assay for IL-6 release in LPS-stimulated cells; type: cell-based; settings: for IL-6 (pg/ml)% (percentage of inhibition of IL-6): WI-38 cells, test compounds 10 µM, LPS 0.5 µg/mL, LPS alone = 100; for inhibition of IL-6 release (in words): LPS-stimulated WI-38 fibroblast cells
[2] = system: LPS-induced TNF-α in WI-38 fibroblast cells; assay: ELISA assay for TNF-α release in LPS-stimulated cells; type: cell-based; settings: for TNF-α (pg/ml)% (percentage of inhibition of TNF-α): WI-38 cells, test compounds 10 µM, LPS 0.5 µg/mL, LPS alone = 100; for inhibition of TNF-α release (in words): LPS-stimulated WI-38 fibroblast cells
[3] = read-out: COX-1 IC50 (μM ± SD), mean ± SD of triplicate experiments
[4] = read-out: COX-2 IC50 (μM ± SD), mean ± SD of triplicate experiments

Sequence of human recombinant COX-1 (P23219 24-599): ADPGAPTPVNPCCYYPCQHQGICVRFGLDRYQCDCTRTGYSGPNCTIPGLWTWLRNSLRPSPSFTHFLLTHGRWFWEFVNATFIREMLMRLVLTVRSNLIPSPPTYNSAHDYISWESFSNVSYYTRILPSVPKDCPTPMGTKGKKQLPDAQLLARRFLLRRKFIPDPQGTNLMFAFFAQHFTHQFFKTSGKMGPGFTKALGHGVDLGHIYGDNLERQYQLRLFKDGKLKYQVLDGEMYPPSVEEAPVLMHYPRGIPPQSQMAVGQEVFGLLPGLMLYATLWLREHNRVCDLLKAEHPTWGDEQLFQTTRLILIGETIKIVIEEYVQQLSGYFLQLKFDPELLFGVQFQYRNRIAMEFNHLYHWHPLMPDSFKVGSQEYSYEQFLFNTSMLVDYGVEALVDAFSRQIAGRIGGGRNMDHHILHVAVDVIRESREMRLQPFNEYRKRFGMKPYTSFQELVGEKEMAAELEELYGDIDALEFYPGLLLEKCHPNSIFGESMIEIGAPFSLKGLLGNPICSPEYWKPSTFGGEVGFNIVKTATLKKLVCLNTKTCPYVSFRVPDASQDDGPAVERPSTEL

## CC(=O)O[C@@H]1CC[C@@]2(C)[C@@H](CC[C@]3(C)[C@@H]2C(=O)C=C2[C@@H]4[C@@H](C)[C@H](C)CC[C@]4(C)CC[C@]23C)[C@@]1(C)C(=O)O [Acetyl-keto boswellic acid, reference compound]
Human recombinant COX-1
  COX-1% (percentage of inhibition of COX-1): 71.42%
  Selectivity IC50 COX-1/IC50 COX-2: 10%
Human recombinant COX-1; [3]
  IC50: 7.84 ± 0.13 µM
Human recombinant COX-2
  COX-2% (percentage of inhibition of COX-2): 19.87%
Human recombinant COX-2; [4]
  IC50: 82.52 ± 0.62 µM
[1]
  IL-6 (pg/ml)% (percentage of inhibition of IL-6): 7.31%
[2]
  TNF-α (pg/ml)% (percentage of inhibition of TNF-α): 18.76%

## CC(=O)O[C@@H]1CC[C@@]2(C)[C@@H](CC[C@]3(C)[C@@H]2CC=C2[C@@H]4CC(C)(C)CC[C@]4(C)CC[C@]23C)[C@@]1(C)C(=O)O [Acetyl-α-boswellic acid, reference compound]
Human recombinant COX-1
  COX-1% (percentage of inhibition of COX-1): 69.81%
  Selectivity IC50 COX-1/IC50 COX-2: 10%
Human recombinant COX-1; [3]
  IC50: 10.1 ± 0.17 µM
Human recombinant COX-2
  COX-2% (percentage of inhibition of COX-2): 7.98%
Human recombinant COX-2; [4]
  IC50: > 100 µM
[1]
  IL-6 (pg/ml)% (percentage of inhibition of IL-6): 15.73%
[2]
  TNF-α (pg/ml)% (percentage of inhibition of TNF-α): 14.87%

## CC(=O)O[C@@H]1CC[C@@]2(C)[C@@H](CC[C@]3(C)[C@@H]2CC=C2[C@@H]4[C@@H](C)[C@H](C)CC[C@]4(C)CC[C@]23C)[C@@]1(C)C(=O)O [Acetyl-β-boswellic acid, reference compound]
Human recombinant COX-1
  COX-1% (percentage of inhibition of COX-1): 75.73%
  Selectivity IC50 COX-1/IC50 COX-2: 11%
Human recombinant COX-1; [3]
  IC50: 8.16 ± 0.1 µM
Human recombinant COX-2
  COX-2% (percentage of inhibition of COX-2): 14.87%
Human recombinant COX-2; [4]
  IC50: 72.52 ± 0.51 µM
[1]
  IL-6 (pg/ml)% (percentage of inhibition of IL-6): 11.42%
[2]
  TNF-α (pg/ml)% (percentage of inhibition of TNF-α): 19.87%

## Cc1ccc(-c2cc(C(F)(F)F)nn2-c2ccc(S(N)(=O)=O)cc2)cc1 [Celecoxib, reference compound]
[1]; 10 µM
  IL-6 (pg/ml)% (percentage of inhibition of IL-6): 24.77%

## O=C(c1ccccc1)C1C(c2cc3ccccc3o2)C2CSCN2[C@@]12C(=O)Nc1ccc(Cl)cc12 (stereo partly drawn) [Compound 5a, (3S)-7'-(Benzofuran-2-yl)-6'-benzoyl-5-chloro-1',6',7',7a'-tetrahydro-3'H-spiro[indoline-3,5'-pyrrolo[1,2-c]thiazol]-2-one]
Human recombinant COX-1
  IC50: 20.4 ± 0.55 µM
  Selectivity IC50 COX-1/IC50 COX-2: 23%
  inhibition at 40 µg/mL: 57.4%
Human recombinant COX-2
  IC50: 88.1 ± 1.78 µM
  inhibition at 40 µg/mL: 11.2%

## O=C(c1ccc(F)cc1)C1C(c2cc3ccccc3o2)C2CSCN2[C@@]12C(=O)Nc1ccc(Cl)cc12 (stereo partly drawn) [Compound 5c, (3S)-7'-(Benzofuran-2-yl)-5-chloro-6'-(4-fluorobenzoyl)-1',6',7',7a'-tetrahydro-3'H-spiro[indoline-3,5'-pyrrolo[1,2-c]thiazol]-2-one]
Human recombinant COX-1
  IC50: 37 ± 1.54 µM
  Selectivity IC50 COX-1/IC50 COX-2: 49%
  inhibition at 40 µg/mL: 40.8%
Human recombinant COX-2
  IC50: 76.2 ± 1.46 µM
  inhibition at 40 µg/mL: 8.33%

## O=C(c1ccc(F)cc1)C1C(c2cc3ccccc3o2)C2C3CCCCC3CN2[C@@]12C(=O)Nc1ccc(Cl)cc12 (stereo partly drawn) [Compound 5d, (3S)-1'-(benzofuran-2-yl)-5-chloro-2'-(4-fluorobenzoyl)-1',2',5',5a',6',7',8',9',9a',9b'-decahydrospiro-[indoline-3,3'-pyrrolo[2,1-a]isoindol]-2-one]
Human recombinant COX-1
  inhibition at 40 µg/mL: 19.8%
Human recombinant COX-2
  inhibition at 40 µg/mL: 7.77%
[1]
  inhibition of IL-6 release (in words): markedly inhibited; also recorded: most effective; also recorded: high potency
[2]
  inhibition of TNF-α release (in words): markedly inhibited; also recorded: most effective; also recorded: high potency

## O=C(c1ccc(F)cc1)C1C(c2cc3ccccc3o2)C2C3CCCCC3CN2[C@@]12C(=O)Nc1ccc(Br)cc12 (stereo partly drawn) [Compound 5e, (3S)-1'-(Benzofuran-2-yl)-5-bromo-2'-(4-fluorobenzoyl)-1',2',5',5a',6',7',8',9',9a',9b'-decahydrospiro-[indoline-3,3'-pyrrolo[2,1-a]isoindol]-2-one]
Human recombinant COX-1
  inhibition at 40 µg/mL: 9.43%
Human recombinant COX-2
  inhibition at 40 µg/mL: 1.8%
[1]
  inhibition of IL-6 release (in words): markedly inhibited; also recorded: most effective; also recorded: high potency
[2]
  inhibition of TNF-α release (in words): markedly inhibited; also recorded: most effective; also recorded: high potency

## O=C(c1ccc(Br)cc1)C1C(c2cc3ccccc3o2)C2C3CCCCC3CN2[C@@]12C(=O)Nc1ccc(Cl)cc12 (stereo partly drawn) [Compound 5f, (3S)-1'-(Benzofuran-2-yl)-2'-(4-bromobenzoyl)-5-chloro-1',2',5',5a',6',7',8',9',9a',9b'-decahydrospiro-[indoline-3,3'-pyrrolo[2,1-a]isoindol]-2-one]
Human recombinant COX-1
  inhibition at 40 µg/mL: 32.1%
Human recombinant COX-2
  inhibition at 40 µg/mL: 5.92%
[1]
  inhibition of IL-6 release (in words): markedly inhibited; also recorded: most effective; also recorded: high potency
[2]
  inhibition of TNF-α release (in words): markedly inhibited; also recorded: most effective; also recorded: high potency

## O=C(c1ccc(Br)cc1)C1C(c2cc3ccccc3o2)C2C3CCCCC3CN2[C@@]12C(=O)Nc1ccc(Br)cc12 (stereo partly drawn) [Compound 5g, (3S)-1'-(Benzofuran-2-yl)-5-bromo-2'-(4-bromobenzoyl)-1',2',5',5a',6',7',8',9',9a',9b'-decahydrospiro-[indoline-3,3'-pyrrolo[2,1-a]isoindol]-2-one]
Human recombinant COX-1
  inhibition at 40 µg/mL: 19.8%
Human recombinant COX-2
  inhibition at 40 µg/mL: 2.76%
[1]
  inhibition of IL-6 release (in words): markedly inhibited; also recorded: most effective; also recorded: high potency
[2]
  inhibition of TNF-α release (in words): markedly inhibited; also recorded: most effective; also recorded: high potency

## O=C(c1ccc(Br)cc1)C1C(c2cc3ccccc3o2)C2CSCN2[C@@]12C(=O)Nc1ccc(Br)cc12 (stereo partly drawn) [Compound 5h, (3S)-7'-(Benzofuran-2-yl)-5-bromo-6'-(4-bromobenzoyl)-1',6',7',7a'-tetrahydro-3'H-spiro[indoline-3,5'-pyrrolo[1,2-c]thiazol]-2-one]
Human recombinant COX-1
  IC50: 35.7 ± 0.51 µM
  Selectivity IC50 COX-1/IC50 COX-2: 42%
  inhibition at 40 µg/mL: 41.7%
Human recombinant COX-2
  IC50: 84.7 ± 1.16 µM
  inhibition at 40 µg/mL: 9.8%

## O=C(c1ccc(Br)cc1)C1C(c2cc3ccccc3o2)C2CSCN2[C@@]12C(=O)Nc1ccc(Cl)cc12 (stereo partly drawn) [Compound 5i, (3S)-7'-(Benzofuran-2-yl)-6'-(4-bromobenzoyl)-5-chloro-1',6',7',7a'-tetrahydro-3'H-spiro[indoline-3,5'-pyrrolo[1,2-c]thiazol]-2-one]
Human recombinant COX-1
  IC50: 29.55 ± 0.19 µM
  Selectivity IC50 COX-1/IC50 COX-2: 41%
  inhibition at 40 µg/mL: 44.5%
Human recombinant COX-2
  IC50: 71.2 ± 1.29 µM
  inhibition at 40 µg/mL: 17.9%

## O=C(c1ccc(C(F)(F)F)cc1)C1C(c2cc3ccccc3o2)C2C3CCCCC3CN2[C@@]12C(=O)Nc1ccc(Br)cc12 (stereo partly drawn) [Compound 5k, (3S)-1'-(Benzofuran-2-yl)-5-bromo-2'-(4-(trifluoromethyl)benzoyl)-1',2',5',5a',6',7',8',9',9a',9b'-decahydro-spiro[indoline-3,3'-pyrrolo[2,1-a]isoindol]-2-one]
Human recombinant COX-1
  inhibition at 40 µg/mL: 12.3%
Human recombinant COX-2
  inhibition at 40 µg/mL: 4.45%
[1]
  inhibition of IL-6 release (in words): markedly inhibited; also recorded: most effective; also recorded: high potency
[2]
  inhibition of TNF-α release (in words): markedly inhibited; also recorded: most effective; also recorded: high potency

## O=C(c1ccc(C(F)(F)F)cc1)C1C(c2cc3ccccc3o2)C2CSCN2[C@@]12C(=O)Nc1ccc(Cl)cc12 (stereo partly drawn) [Compound 5l, (3S)-7'-(Benzofuran-2-yl)-5-chloro-6'-(4-(trifluoromethyl)benzoyl)-1',6',7',7a'-tetrahydro-3'H-spiro-[indoline-3,5'-pyrrolo[1,2-c]thiazol]-2-one]
Human recombinant COX-1
  IC50: 31.25 ± 0.24 µM
  inhibition at 40 µg/mL: 47.7%
Human recombinant COX-2
  IC50: 58.8 ± 1.58 µM
  inhibition at 40 µg/mL: 19.8%

## O=C(c1ccc(Cl)cc1)C1C(c2cc3ccccc3o2)C2CSCN2[C@@]12C(=O)Nc1ccc(Cl)cc12 (stereo partly drawn) [Compound 5p, (3S)-7'-(Benzofuran-2-yl)-5-chloro-6'-(4-chlorobenzoyl)-1',6',7',7a'-tetrahydro-3'H-spiro[indoline-3,5'-pyrrolo[1,2-c]thiazol]-2-one]
Human recombinant COX-1
  IC50: 38.2 ± 0.96 µM
  Selectivity IC50 COX-1/IC50 COX-2: 45%
  inhibition at 40 µg/mL: 52.8%
Human recombinant COX-2
  IC50: 85.7 ± 1.51 µM
  inhibition at 40 µg/mL: 9.98%

## COc1ccc2c(c1)c(CC(=O)O)c(C)n2C(=O)c1ccc(Cl)cc1 [Indomethacin, reference compound]
Human recombinant COX-1
  inhibition at 40 µg/mL: 87.3%

## C[C@H]1[C@H](C)CC[C@]2(C)CC[C@]3(C)C(=CC[C@@H]4[C@@]5(C)CC[C@@H](O)[C@](C)(C(=O)O)[C@@H]5CC[C@]43C)[C@H]12 [β-Boswellic acid, reference compound]
Human recombinant COX-1
  IC50: 18.1 ± 0.42 µM
  Selectivity IC50 COX-1/IC50 COX-2: 18%
  inhibition at 40 µg/mL: 64.8%
Human recombinant COX-2
  IC50: > 100 µM
  inhibition at 40 µg/mL: 7.66%
